Measurements reported in article PMC10184313, “Inhibition of Thiamine Diphosphate-Dependent Enzymes by Triazole-Based Thiamine Analogues” (ACS Medicinal Chemistry Letters, 2023).
Like-named read-outs stand apart in the source and are kept apart here.

Legend:
[1] = target: T1, S. cerevisiae PDC (Saccharomyces cerevisiae, UniProt P06169); test: S. cerevisiae PDC inhibitory activity assay (DCPIP reduction); assay type: biochemical; conditions: compounds insufficiently soluble were excluded; for inhibition at 1500 µM: read-out: Inhibition (%) Yeast PDC
T1 construct: purchased Sigma
T1 sequence (P06169 2-563 limits assumed): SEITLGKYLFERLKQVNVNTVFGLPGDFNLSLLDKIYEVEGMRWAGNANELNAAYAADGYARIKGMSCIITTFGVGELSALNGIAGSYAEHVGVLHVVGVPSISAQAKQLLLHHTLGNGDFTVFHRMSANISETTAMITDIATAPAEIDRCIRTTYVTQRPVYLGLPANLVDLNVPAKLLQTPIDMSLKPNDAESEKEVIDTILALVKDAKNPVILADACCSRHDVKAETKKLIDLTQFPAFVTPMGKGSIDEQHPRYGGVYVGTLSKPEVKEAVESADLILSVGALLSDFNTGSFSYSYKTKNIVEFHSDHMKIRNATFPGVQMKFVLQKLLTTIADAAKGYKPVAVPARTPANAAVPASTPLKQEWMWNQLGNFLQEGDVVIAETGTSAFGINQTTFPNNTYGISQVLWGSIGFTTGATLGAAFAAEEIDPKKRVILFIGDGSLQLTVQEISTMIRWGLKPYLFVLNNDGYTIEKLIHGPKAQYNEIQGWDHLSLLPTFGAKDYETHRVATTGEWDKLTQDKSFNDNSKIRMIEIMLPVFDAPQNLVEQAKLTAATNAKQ
Procedure: S. cerevisiae PDC inhibitory activity assay. S. cerevisiae PDC was purchased from Sigma. Its activity was determined by monitoring DCPIP reduction at 600 nm using a microplate reader (CLARIOstar) and conducted as described 1,2 with some modifications. The percentage inhibition of compounds was assayed at a final concentration of 1500 µM. The reaction buffer (50 mM KH 2PO4 and 1 mM MgCl 2, pH 7) contained 300 µM ThDP (or 750 µM in the competition assay), 0.27 mM DCPIP, and 0.15 mg/ml S. cerevisiae PDC. The reaction mixture was preincubated at 37 °C for 60 min, then reaction was initiated by adding pyruvate to a final concentration of 70 mM. Specific activity was calculated using the molar extinction coefficient of DCPIP, 21 mM -1 cm -1.3 […]

[2] = target: T2, porcine PDHc E1 (Sus scrofa, UniProt P29804); test: PDHc E1 inhibitory activity assay (DCPIP reduction); assay type: biochemical
T2 sequence (P29804 31-390): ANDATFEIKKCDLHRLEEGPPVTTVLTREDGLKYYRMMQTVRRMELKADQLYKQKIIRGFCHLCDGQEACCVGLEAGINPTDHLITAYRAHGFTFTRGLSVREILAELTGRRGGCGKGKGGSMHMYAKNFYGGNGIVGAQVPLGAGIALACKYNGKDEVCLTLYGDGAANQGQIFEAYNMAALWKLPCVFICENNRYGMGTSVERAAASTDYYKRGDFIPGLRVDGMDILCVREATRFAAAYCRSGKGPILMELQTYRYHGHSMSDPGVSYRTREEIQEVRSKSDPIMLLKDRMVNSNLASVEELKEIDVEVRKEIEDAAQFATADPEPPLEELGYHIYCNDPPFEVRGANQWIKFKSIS
Procedure: Enzyme assays – Methods and Results S1
Ligand efficiencies – Calculations S3 […]
Enzyme assays (Methods and Results)
PDHc E1 inhibitory activity assay. Porcine PDHc E1 was purchased from Sigma. Its activity was […]
determined by monitoring 2,6-dichlorophenolindophenol (DCPIP) reduction at 600 nm using a […]
microplate reader (CLARIOstar) and conducted as described 1,2 with some modifications. The percentage inhibition of compounds against porcine PDHc E1 was assayed at a final concentration of 250 µM. The reaction buffer (50 mM KH 2PO4 and 1 mM MgCl 2, pH 7) contained 50 µM ThDP (or 125 µM in the competition assay), 0.25 mM DCPIP, and 2 mg/ml porcine PDHc E1. The reaction mixture […]
was preincubated at 37 °C for 30 min, then the reaction was initiated by adding pyruvate to a final […]
concentration of 50 mM. To determine the half-maximal inhibitory concentration (IC 50 ), ThDP […]
concentration was lowered to 10 µM, and inhibitor concentration was varied (0.4-200 µM). Specific […]
activity was calculated using the molar extinction coefficient of DCPIP, 21 mM -1 cm-1.3 The enzyme […]
IC50 values were calculated from non-linear regression curve fitting using GraphPad Prism.

[3] = [Compound] = 1.5 mM, [ThDP] = 0.3 mM
[4] = [Compound] = 250 μM, [ThDP] = 50 μM

Compound | Inhibition (%) Yeast PDC [1, 3] | Inhibition (%) PDHc E1 [2, 4] [%] | inhibition at 1500 µM [1, 3] [%] | inhibition at 1500 µM ([1]; increased ThDP: [Compound] = 1500 μM, [ThDP] = 750 μM) [%] | Inhibition (%) PDHc E1 ([2]; increased ThDP: [Compound] = 250 μM, [ThDP] = 125 μM) [%]
Cc1ncc(Cn2cc(CCCCNS(=O)(=O)C(F)(F)F)nn2)c(N)n1 [Compound 18c] | Insoluble | 71 ± 3 | – | – | –
Cc1ncc(Cn2cc(CCNC(=O)c3cccc(-c4noc(C(F)(F)F)n4)c3)nn2)c(N)n1 [Compound 19a] | Insoluble | 48 ± 3 | – | – | –
Cc1ncc(Cn2cc(CCNC(=O)c3cccc(C#N)c3)nn2)c(N)n1 [Compound 20a] | – | 46 ± 4 | < 20 | – | –
COc1cccc(C(=O)NCCc2cn(Cc3cnc(C)nc3N)nn2)c1 [Compound 21a] | – | 67 ± 4 | 48 ± 2 | – | –
COc1cccc(C(=O)NCCCc2cn(Cc3cnc(C)nc3N)nn2)c1 [Compound 21b] | – | 61 ± 2 | 38 ± 5 | – | –
COc1cccc(C(=O)NCCCCc2cn(Cc3cnc(C)nc3N)nn2)c1 [Compound 21c] | Insoluble | 60 ± 5 | – | – | –
COc1ccccc1C(=O)NCCc1cn(Cc2cnc(C)nc2N)nn1 [Compound 22a] | – | 83 ± 4 | 61 ± 4 | – | –
COc1ccccc1C(=O)NCCCc1cn(Cc2cnc(C)nc2N)nn1 [Compound 22b] | Insoluble | 58 ± 3 | – | – | –
COc1ccccc1C(=O)NCCCCc1cn(Cc2cnc(C)nc2N)nn1 [Compound 22c] | Insoluble | 58 ± 2 | – | – | –
Cc1ncc(Cn2cc(CCC(=O)NO)nn2)c(N)n1 [Compound 24a] | – | 77 ± 3 | 41 ± 3 | – | –
Cc1ncc(Cn2cc(CCC(=O)Nc3ccccc3N)nn2)c(N)n1 [Compound 26a] | – | 75 ± 5 | < 20 | – | –
Cc1ncc(Cn2cc(CCCC(=O)Nc3ccccc3N)nn2)c(N)n1 [Compound 26b] | – | 59 ± 2 | 28 ± 3 | – | –
Cc1ncc(Cn2cc(CCCCC(=O)Nc3ccccc3N)nn2)c(N)n1 [Compound 26c] | – | 64 ± 4 | < 20 | – | –
Cc1ncc(C[n+]2csc(CCO[P@@](=O)(O)OP(=O)(O)O)c2C)c(O)n1 [OxThDP 7b, oxythiamine diphosphate, reference compound] | – | > 90 | 81 ± 3 | 63 ± 3 | 75 ± 3
